In publication PMC8237569 (Proceedings of the National Academy of Sciences of the …, 2021):
Converted amounts (≈) assume the structure as drawn.

Assays:
[1] = system: TA-C–resistant M. tuberculosis strains (fbiC, fgd1 mutants); format: cell-based
[2] = system: NC1=NC2(CCCCC2)N(c2ccc(OCc3cn(CCCCOc4ccc5ccc(=O)oc5c4)nn3)cc2)C(N)=N1; assay: purified protein, by the assay type; details: pH 7.5

| Compound | MIC50 [1] [µM] | also measured |
| --- | --- | --- |
| NNC(=O)c1ccncc1 [INH, isoniazid] | 0.4 (≈ 0.0549 µg/mL) |  |
| Nc1ccc(C(=O)O)c(O)c1 [PAS, para-aminosalicylic acid] | 0.2 (≈ 0.0306 µg/mL) |  |
| O=[N+]([O-])c1cn2c(n1)OC[C@@H](OCc1ccc(OC(F)(F)F)cc1)C2 [PTM, pretomanid] | >100 |  |
| CO[C@H]1/C=C/O[C@@]2(C)Oc3c(C)c(O)c4c(O)c(c(/C=N/N5CCN(C)CC5)c(O)c4c3C2=O)NC(=O)/C(C)=C\C=C\[C@H](C)[C@H](O)[C@@H](C)[C@@H](O)[C@@H](C)[C@H](OC(C)=O)[C@@H]1C [RIF, rifampicin] |  | MIC50, RIF [1]: 0.0016 µM (≈ 0.00132 µg/mL) |
| Rv1558 (Mycobacterium tuberculosis H37Rv) |  | Km [2]: 10.01 ± 1.6 µM |
